From ChEMBL document CHEMBL1130746, “Naphthalenebis[alpha,alpha-difluoromethylenephosphonates] as potent inhibitors of protein tyrosine phosphatases” (Bioorg Med Chem Lett, 1998)

Target: T1, Tyrosine-protein phosphatase non-receptor type 1 (Homo sapiens, UniProt P18031)
T1 sequence (P18031 whole entry): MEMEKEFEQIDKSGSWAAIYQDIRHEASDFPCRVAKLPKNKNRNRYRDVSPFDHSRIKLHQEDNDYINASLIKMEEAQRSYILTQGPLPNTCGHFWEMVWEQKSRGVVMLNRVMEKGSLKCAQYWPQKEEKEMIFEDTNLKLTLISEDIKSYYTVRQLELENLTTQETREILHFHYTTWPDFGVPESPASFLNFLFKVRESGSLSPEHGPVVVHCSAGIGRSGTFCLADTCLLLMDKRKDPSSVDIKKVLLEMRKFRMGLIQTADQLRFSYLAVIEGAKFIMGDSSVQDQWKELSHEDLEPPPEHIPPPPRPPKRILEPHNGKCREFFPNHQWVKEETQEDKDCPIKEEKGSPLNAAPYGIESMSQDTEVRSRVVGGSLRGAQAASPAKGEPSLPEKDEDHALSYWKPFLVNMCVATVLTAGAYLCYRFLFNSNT
Experiment: Compound was evaluated for 50% inhibition of PTP1B using uM)
An IC50 of 95 µM was found for `O=P(O)(O)C(F)(F)c1ccc2ccccc2c1` in this work.
An IC50 of 112 µM was found for `O=P(O)(O)C(F)(F)c1cccc2ccccc12` in this work.
An IC50 of 118 µM was found for `O=P(O)(O)C(F)(F)c1ccc2cccc(C(F)(F)P(=O)(O)O)c2c1` in this work.
An IC50 greater than 500 µM was found for `O=P(O)(O)Cc1ccc2ccc(CP(=O)(O)O)cc2c1` in this work.
An IC50 of 130 µM was found for `O=P(O)(O)C(F)c1ccc2ccc(C(F)P(=O)(O)O)cc2c1` (configuration not stated) in this work.
An IC50 of 29 µM was found for `O=P(O)(O)C(F)(F)c1ccc2cc(C(F)(F)P(=O)(O)O)ccc2c1` in this work.

Target: T2, Receptor-type tyrosine-protein phosphatase C (Homo sapiens, UniProt P08575)
T2 sequence (P08575 whole entry): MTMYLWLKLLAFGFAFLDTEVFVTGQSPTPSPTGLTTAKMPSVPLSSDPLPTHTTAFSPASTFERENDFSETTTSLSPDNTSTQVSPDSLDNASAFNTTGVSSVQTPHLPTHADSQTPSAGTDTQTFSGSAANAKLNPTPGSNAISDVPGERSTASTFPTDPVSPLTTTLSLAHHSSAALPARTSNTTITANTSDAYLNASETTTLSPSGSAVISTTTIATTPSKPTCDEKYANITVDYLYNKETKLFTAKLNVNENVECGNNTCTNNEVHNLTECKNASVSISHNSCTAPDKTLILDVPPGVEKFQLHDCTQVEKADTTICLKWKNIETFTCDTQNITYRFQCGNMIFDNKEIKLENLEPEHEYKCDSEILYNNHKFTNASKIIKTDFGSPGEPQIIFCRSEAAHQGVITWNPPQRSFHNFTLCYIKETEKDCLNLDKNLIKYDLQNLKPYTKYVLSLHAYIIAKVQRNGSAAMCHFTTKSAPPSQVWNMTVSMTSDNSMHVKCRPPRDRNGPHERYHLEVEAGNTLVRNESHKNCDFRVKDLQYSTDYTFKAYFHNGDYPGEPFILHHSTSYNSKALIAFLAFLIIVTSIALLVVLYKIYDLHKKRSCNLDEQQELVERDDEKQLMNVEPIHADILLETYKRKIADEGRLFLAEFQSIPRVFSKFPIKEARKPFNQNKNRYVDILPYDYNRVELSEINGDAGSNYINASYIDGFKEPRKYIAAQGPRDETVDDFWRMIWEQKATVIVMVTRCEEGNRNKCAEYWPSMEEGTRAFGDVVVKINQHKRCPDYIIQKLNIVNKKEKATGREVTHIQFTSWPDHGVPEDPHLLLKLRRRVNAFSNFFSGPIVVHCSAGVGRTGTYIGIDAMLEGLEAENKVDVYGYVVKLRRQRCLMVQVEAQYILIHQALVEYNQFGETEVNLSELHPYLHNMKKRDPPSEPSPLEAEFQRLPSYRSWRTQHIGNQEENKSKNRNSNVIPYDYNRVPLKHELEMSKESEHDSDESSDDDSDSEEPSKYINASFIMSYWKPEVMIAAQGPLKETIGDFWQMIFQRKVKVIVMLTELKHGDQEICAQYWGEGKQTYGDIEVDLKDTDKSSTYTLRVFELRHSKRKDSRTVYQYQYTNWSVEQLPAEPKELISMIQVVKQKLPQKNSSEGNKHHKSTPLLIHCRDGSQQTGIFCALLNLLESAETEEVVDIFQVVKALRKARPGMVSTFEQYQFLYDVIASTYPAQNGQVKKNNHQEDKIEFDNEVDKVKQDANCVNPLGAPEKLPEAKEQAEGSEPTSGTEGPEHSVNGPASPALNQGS
Experiment: Compound was evaluated for 50% inhibition of CD45 using uM)
An IC50 greater than 1000 µM was found for `O=P(O)(O)C(F)(F)c1ccc2ccccc2c1` in this work.
An IC50 greater than 1000 µM was found for `O=P(O)(O)C(F)(F)c1cccc2ccccc12` in this work.
An IC50 of 180 µM was found for `O=P(O)(O)C(F)(F)c1ccc2ccc(C(F)(F)P(=O)(O)O)cc2c1` in this work.
An IC50 of 27 µM was found for `O=P(O)(O)C(F)(F)c1ccc2cccc(C(F)(F)P(=O)(O)O)c2c1` in this work.

Target: T2, Receptor-type tyrosine-protein phosphatase C
Experiment: Compound was evaluated for 50% inhibition of CD45 protein-tyrosine phosphatase using uM)
An IC50 of 500 µM was found for `O=P(O)(O)Cc1ccc2ccc(CP(=O)(O)O)cc2c1` in this work.
An IC50 of 279 µM was found for `O=P(O)(O)C(F)c1ccc2ccc(C(F)P(=O)(O)O)cc2c1` (configuration not stated) in this work.
An IC50 greater than 100 µM was found for `O=P(O)(O)C(F)(F)c1ccc2cc(C(F)(F)P(=O)(O)O)ccc2c1` in this work.

Target: not listed separately
Experiment: Compound was evaluated for 50% inhibition of PP2A, a serine/threonine phosphatase using uM)
An IC50 of 753 µM was found for `O=P(O)(O)C(F)(F)c1ccc2ccccc2c1` in this work.
An IC50 of 636 µM was found for `O=P(O)(O)C(F)(F)c1cccc2ccccc12` in this work.
An IC50 of 306 µM was found for `O=P(O)(O)C(F)(F)c1ccc2ccc(C(F)(F)P(=O)(O)O)cc2c1` in this work.
An IC50 of 481 µM was found for `O=P(O)(O)C(F)(F)c1ccc2cccc(C(F)(F)P(=O)(O)O)c2c1` in this work.
An IC50 of 354 µM was found for `O=P(O)(O)C(F)(F)c1ccc2cc(C(F)(F)P(=O)(O)O)ccc2c1` in this work.

Test system: not listed separately
Experiment: Compound was evaluated for inhibition of PP2A at a concentration of 500 uM)
An inhibition of 39% was found for `O=P(O)(O)C(F)(F)c1ccc2ccccc2c1` in this work.
An inhibition of 52% was found for `O=P(O)(O)C(F)(F)c1cccc2ccccc12` in this work.
An inhibition of 70% was found for `O=P(O)(O)C(F)(F)c1ccc2ccc(C(F)(F)P(=O)(O)O)cc2c1` in this work.
An inhibition of 61% was found for `O=P(O)(O)C(F)(F)c1ccc2cccc(C(F)(F)P(=O)(O)O)c2c1` in this work.
An inhibition of 77% was found for `O=P(O)(O)C(F)(F)c1cccc2c(C(F)(F)P(=O)(O)O)cccc12` in this work.
An inhibition of 75% was found for `O=P(O)(O)C(F)(F)c1ccc2c(C(F)(F)P(=O)(O)O)cccc2c1` in this work.
An inhibition of 70% was found for `O=P(O)(O)C(F)(F)c1ccc2cc(C(F)(F)P(=O)(O)O)ccc2c1` in this work.
An inhibition of 66% was found for `O=P(O)(O)C(F)(F)c1cc(C(F)(F)P(=O)(O)O)c2ccccc2c1` in this work.

Target: T3, Receptor-type tyrosine-protein phosphatase C (Homo sapiens) (UniProt P08575)
T3 sequence (whole entry): T2 sequence (P08575 whole entry)
Experiment: Compound was evaluated for inhibition of CD45 protein-tyrosine phosphatase at a concentration of 500 uM)
An inhibition of 99% was found for `O=P(O)(O)C(F)(F)c1ccc2cccc(C(F)(F)P(=O)(O)O)c2c1` in this work.
An inhibition of 26% was found for `O=P(O)(O)C(F)(F)c1cccc2c(C(F)(F)P(=O)(O)O)cccc12` in this work.
An inhibition of 70% was found for `O=P(O)(O)C(F)(F)c1ccc2c(C(F)(F)P(=O)(O)O)cccc2c1` in this work.
An inhibition of 62% was found for `O=P(O)(O)C(F)(F)c1ccc2cc(C(F)(F)P(=O)(O)O)ccc2c1` in this work.
An inhibition of 78% was found for `O=P(O)(O)C(F)(F)c1cc(C(F)(F)P(=O)(O)O)c2ccccc2c1` in this work.

Target: T4, Tyrosine-protein phosphatase non-receptor type 1 (Homo sapiens) (UniProt P18031)
T4 sequence (whole entry): T1 sequence (P18031 whole entry)
Experiment: Compound was evaluated for inhibition of PTP1B at a concentration of 500 uM)
An inhibition of 84% was found for `O=P(O)(O)C(F)(F)c1ccc2ccccc2c1` in this work.
An inhibition of 83% was found for `O=P(O)(O)C(F)(F)c1cccc2ccccc12` in this work.
An inhibition of 100% was found for `O=P(O)(O)C(F)(F)c1ccc2ccc(C(F)(F)P(=O)(O)O)cc2c1` in this work.
An inhibition of 98% was found for `O=P(O)(O)C(F)(F)c1ccc2cccc(C(F)(F)P(=O)(O)O)c2c1` in this work.
An inhibition of 51% was found for `O=P(O)(O)C(F)(F)c1cccc2c(C(F)(F)P(=O)(O)O)cccc12` in this work.
An inhibition of 89% was found for `O=P(O)(O)C(F)(F)c1ccc2c(C(F)(F)P(=O)(O)O)cccc2c1` in this work.
An inhibition of 100% was found for `O=P(O)(O)C(F)(F)c1ccc2cc(C(F)(F)P(=O)(O)O)ccc2c1` in this work.
An inhibition of 81% was found for `O=P(O)(O)C(F)(F)c1cc(C(F)(F)P(=O)(O)O)c2ccccc2c1` in this work.

Target: T1, Tyrosine-protein phosphatase non-receptor type 1
Experiment: Compound was evaluated for inhibitory constant against PTP1B
A Ki of 197 µM was found for `O=P(O)(O)C(F)(F)c1ccc2ccccc2c1` in this work.
A Ki of 255 µM was found for `O=P(O)(O)C(F)(F)c1cccc2ccccc12` in this work.
A Ki of 16 µM was found for `O=P(O)(O)C(F)(F)c1ccc2ccc(C(F)(F)P(=O)(O)O)cc2c1` in this work.
A Ki of 93 µM was found for `O=P(O)(O)C(F)(F)c1cc(O)c2ccccc2c1` in this work.

Target: T3, Receptor-type tyrosine-protein phosphatase C (Homo sapiens)
Experiment: Compound was evaluated for inhibition of CD45 at a concentration of 500 uM)
An inhibition of 5% was found for `O=P(O)(O)C(F)(F)c1ccc2ccccc2c1` in this work.
An inhibition of 20% was found for `O=P(O)(O)C(F)(F)c1cccc2ccccc12` in this work.
An inhibition of 64% was found for `O=P(O)(O)C(F)(F)c1ccc2ccc(C(F)(F)P(=O)(O)O)cc2c1` in this work.

Target: T2, Receptor-type tyrosine-protein phosphatase C
Experiment: Compound was evaluated for inhibitory constant against CD45
A Ki of 9 µM was found for `O=P(O)(O)C(F)(F)c1ccc2cccc(C(F)(F)P(=O)(O)O)c2c1` in this work.
